Test results: PMC10726358 (Journal of Medicinal Chemistry, 2023)
Like-named read-outs stand apart in the source and are kept apart here.

Key:
[1] = system: MCP-1; experiment: LPS-stimulated human whole blood (hWB) MCP-1 release assay; type: cell-based
Text: The utility of a chemical probe in target validation is directly related to its quality, with important publications detailing requirements to aid researchers.[36]−[38] […] It was accepted that selectivity would be judged initially through a mutant BRD4 TR-FRET assay and would likely shift depending on the protein construct and assay format. […] Previous studies have shown that BET BD1 inhibition is sufficient to inhibit in vitro production of MCP-1 in LPS-stimulated hWB and, as such, served as a relevant measure of cellular target engagement and, concomitantly, proof of cellular permeability.[12],[39] Selectivity over other human bromodomains outside of the BET family, known collectively as non-BET bromodomains, was also required,[40] with a ≥ 100-fold selectivity window targeted. To ensure the molecules remained within developable chemical space, a target property forecast index (PFI) as defined by chromLogDpH7.4 + number of aromatic rings ≤6 was set.[41]
To understand cellular target engagement, 21 was tested in an LPS-stimulated hWB assay measuring inhibition of the inflammatory mediator MCP-1 secretion.
(§1) All TR-FRET and hWB cytokine assays have been described previously.[54]

[2] = target: BRD2 BD1 (Homo sapiens, UniProt P25440); experiment: BRD2 BD1 TR-FRET assay; type: binding
Experimental: (§2) The BRD4 BD1/BD2 TR-FRET assay had been used routinely for this optimization work, and in order to better understand the BET BD1 domain selectivity profile, 31 was tested in TR-FRET BRD2, BRD3, and BRDT assays.
as §1

[3] = target: T1, BRD3 BD2 (Homo sapiens, UniProt Q15059); experiment: BRD3 BD2 TR-FRET assay; type: binding
Experimental: as §2, §1

[4] = target: BRDT BD2 (Homo sapiens, UniProt Q58F21); experiment: BRDT BD2 TR-FRET assay; type: binding
Experimental: as §2, §1

[5] = target: T1, BRD3 BD2; experiment: BROMOscan BRD3 BD2; type: binding
Experimental: as §2
(§3) [52] BROMOscan recombinant protein binding assays were carried out at DiscoverX. (accessed April 4, 2023).

[6] = target: T2, BRD9 (Homo sapiens, UniProt Q9H8M2); experiment: BROMOscan BRD9; type: binding
T2 construct: ≥2000-fold selectivity over all 20 non-BET bromodomains tested; purchased DiscoverX
Experimental: as §2, §3

[7] = target: T3, BAZ2A (Homo sapiens, UniProt Q9UIF9); experiment: BROMOscan BAZ2A; type: binding
T3 construct: ≥2000-fold selectivity over all 20 non-BET bromodomains tested; purchased DiscoverX
Experimental: as §2, §3

[8] = target: T4, BAZ2B (Homo sapiens, UniProt Q9UIF8); experiment: BROMOscan BAZ2B; type: binding
T4 construct: ≥2000-fold selectivity over all 20 non-BET bromodomains tested; purchased DiscoverX
Experimental: as §2, §3

[9] = target: T5, FALZ (Homo sapiens, UniProt Q12830); experiment: BROMOscan FALZ; type: binding
T5 construct: ≥2000-fold selectivity over all 20 non-BET bromodomains tested; purchased DiscoverX
Experimental: as §2, §3

[10] = target: T6, GCN5 (Homo sapiens, UniProt Q92830); experiment: BROMOscan GCN5; type: binding
T6 construct: ≥2000-fold selectivity over all 20 non-BET bromodomains tested; purchased DiscoverX
Experimental: as §2, §3

[11] = target: T7, PCAF (Homo sapiens, UniProt Q92831); experiment: BROMOscan PCAF; type: binding
T7 construct: ≥2000-fold selectivity over all 20 non-BET bromodomains tested; purchased DiscoverX
Experimental: as §2, §3

[12] = target: T8, Alpha 2C Adrenoceptor (Homo sapiens, UniProt P18825); experiment: Cross screening: Alpha 2C Adrenoceptor agonist; type: biochemical
T8 construct: purchased GSK enhanced cross-screening panel (in-house)

[13] = target: T9, 5-HT3 (Homo sapiens, UniProt P46098); experiment: Cross screening: 5-HT3 Agonist; type: biochemical
T9 construct: purchased GSK enhanced cross-screening panel (in-house)

[14] = target: T10, M1 (Homo sapiens, UniProt P11229); experiment: Cross screening: M1 Agonist; type: biochemical
T10 construct: purchased GSK enhanced cross-screening panel (in-house)

[15] = target: T11, 5-HT2B (Homo sapiens, UniProt P41595); experiment: Cross screening: 5-HT2B Agonist; type: biochemical
T11 construct: purchased GSK enhanced cross-screening panel (in-house)

[16] = target: T12, GR (Homo sapiens, UniProt P04150); experiment: Cross screening: GR Agonist; type: biochemical
T12 construct: purchased GSK enhanced cross-screening panel (in-house)

[17] = target: T13, OPRM1 (Homo sapiens, UniProt P35372); experiment: Cross screening: OPRM1 Agonist; type: biochemical
T13 construct: purchased GSK enhanced cross-screening panel (in-house)

[18] = target: T14, Dopamine 2 (D2) (Homo sapiens, UniProt P14416); experiment: Cross screening: Dopamine 2 (D2) Antagonist; type: biochemical
T14 construct: purchased GSK enhanced cross-screening panel (in-house)

[19] = target: T15, Cyclooxygenase 2 (COX-2) (Homo sapiens, UniProt P35354); experiment: Cross screening: Cyclooxygenase 2 (COX-2) antagonist; type: biochemical
T15 construct: purchased GSK enhanced cross-screening panel (in-house)

[20] = target: T16, NET (Homo sapiens, UniProt P23975); experiment: Cross screening: NET blocker; type: biochemical
T16 construct: purchased GSK enhanced cross-screening panel (in-house)

[21] = target: T17, LCK (Homo sapiens, UniProt P06239); experiment: Cross screening: LCK inhibitor; type: biochemical
T17 construct: purchased GSK enhanced cross-screening panel (in-house)

[22] = target: T18, PI3K-gamma (Homo sapiens, UniProt P48736); experiment: Cross screening: PI3K-gamma inhibitor; type: biochemical
T18 construct: purchased GSK enhanced cross-screening panel (in-house)

[23] = target: T19, PDE4B (Homo sapiens, UniProt Q07343); experiment: Cross screening: PDE4B antagonist; type: biochemical
T19 construct: purchased GSK enhanced cross-screening panel (in-house)

[24] = target: T20, Monoamine Oxidase A (Homo sapiens, UniProt P21397); experiment: Cross screening: Monoamine Oxidase A antagonist; type: biochemical
T20 construct: purchased GSK enhanced cross-screening panel (in-house)

[25] = target: T21, Aurora B (Homo sapiens, UniProt Q96GD4); experiment: Cross screening: Aurora B inhibitor; type: biochemical
T21 construct: purchased GSK enhanced cross-screening panel (in-house)

[26] = target: T22, M2 (CHRM2) (Homo sapiens, UniProt P08172); experiment: Cross screening: M2 (CHRM2) antagonist; type: biochemical
T22 construct: purchased GSK enhanced cross-screening panel (in-house)

[27] = target: T23, D1 (Homo sapiens, UniProt P21728); experiment: Cross screening: D1 antagonist; type: biochemical
T23 construct: purchased GSK enhanced cross-screening panel (in-house)

[28] = target: T24, 5-HT2C (Homo sapiens, UniProt P28335); experiment: Cross screening: 5-HT2C antagonist; type: biochemical
T24 construct: purchased GSK enhanced cross-screening panel (in-house)

[29] = target: T25, V1a (Homo sapiens, UniProt P37288); experiment: Cross screening: V1a antagonist; type: biochemical
T25 construct: purchased GSK enhanced cross-screening panel (in-house)

[30] = pKa of the basic amine
[31] = target: KCNQ1 (Homo sapiens, UniProt P51787); experiment: Cross screening: KCNQ1 blocker
[32] = target: BSEP (Homo sapiens, UniProt O95342); experiment: Cross screening: BSEP inhibitor
[33] = target: Nav1.5 (Homo sapiens, UniProt Q14524); experiment: Cross screening: Nav1.5 blocker
[34] = target: CYP3A4 (Homo sapiens, UniProt P08684); experiment: Cross screening: CYP3A4 inhibition

BRD2 BD1, sequence (P25440 74-180 limits assumed): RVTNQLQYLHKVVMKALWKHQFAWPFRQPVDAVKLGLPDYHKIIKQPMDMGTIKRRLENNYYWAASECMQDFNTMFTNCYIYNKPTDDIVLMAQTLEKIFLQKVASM
T1 sequence (Q15059 306-415 limits assumed): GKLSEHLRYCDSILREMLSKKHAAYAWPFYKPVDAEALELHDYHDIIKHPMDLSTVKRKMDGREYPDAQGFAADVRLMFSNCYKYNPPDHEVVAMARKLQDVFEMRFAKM
T4 sequence (Q9UIF8 2060-2164 limits assumed): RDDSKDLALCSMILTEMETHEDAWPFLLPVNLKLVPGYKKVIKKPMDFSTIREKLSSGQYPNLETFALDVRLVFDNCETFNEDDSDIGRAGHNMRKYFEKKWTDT
T13 sequence (P35372 whole entry): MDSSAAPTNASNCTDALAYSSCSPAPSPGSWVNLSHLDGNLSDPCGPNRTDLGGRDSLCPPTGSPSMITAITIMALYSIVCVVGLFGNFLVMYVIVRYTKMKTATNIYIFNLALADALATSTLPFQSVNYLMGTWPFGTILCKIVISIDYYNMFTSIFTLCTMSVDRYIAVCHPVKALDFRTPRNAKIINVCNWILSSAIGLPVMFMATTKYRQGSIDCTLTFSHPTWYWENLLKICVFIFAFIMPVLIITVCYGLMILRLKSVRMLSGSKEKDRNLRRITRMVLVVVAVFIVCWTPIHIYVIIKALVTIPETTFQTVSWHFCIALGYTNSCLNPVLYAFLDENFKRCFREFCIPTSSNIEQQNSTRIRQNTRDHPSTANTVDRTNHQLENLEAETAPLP
KCNQ1, sequence (P51787 whole entry): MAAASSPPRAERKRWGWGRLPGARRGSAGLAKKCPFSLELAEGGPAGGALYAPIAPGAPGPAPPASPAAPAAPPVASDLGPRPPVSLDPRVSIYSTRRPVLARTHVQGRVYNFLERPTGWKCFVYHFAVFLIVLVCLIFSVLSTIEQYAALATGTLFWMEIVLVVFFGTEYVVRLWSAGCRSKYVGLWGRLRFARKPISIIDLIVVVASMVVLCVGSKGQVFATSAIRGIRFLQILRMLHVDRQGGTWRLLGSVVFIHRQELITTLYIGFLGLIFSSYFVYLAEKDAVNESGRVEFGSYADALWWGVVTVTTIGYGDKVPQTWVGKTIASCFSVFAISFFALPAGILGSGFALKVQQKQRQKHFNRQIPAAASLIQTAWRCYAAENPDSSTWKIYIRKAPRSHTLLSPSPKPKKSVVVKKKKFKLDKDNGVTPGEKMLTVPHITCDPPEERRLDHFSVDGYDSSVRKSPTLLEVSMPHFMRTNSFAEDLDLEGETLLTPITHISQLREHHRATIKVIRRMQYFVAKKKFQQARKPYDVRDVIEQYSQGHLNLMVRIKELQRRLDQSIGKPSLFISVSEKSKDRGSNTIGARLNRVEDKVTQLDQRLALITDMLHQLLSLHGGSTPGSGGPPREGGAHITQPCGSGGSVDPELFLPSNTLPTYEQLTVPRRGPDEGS
BSEP, sequence (O95342 whole entry): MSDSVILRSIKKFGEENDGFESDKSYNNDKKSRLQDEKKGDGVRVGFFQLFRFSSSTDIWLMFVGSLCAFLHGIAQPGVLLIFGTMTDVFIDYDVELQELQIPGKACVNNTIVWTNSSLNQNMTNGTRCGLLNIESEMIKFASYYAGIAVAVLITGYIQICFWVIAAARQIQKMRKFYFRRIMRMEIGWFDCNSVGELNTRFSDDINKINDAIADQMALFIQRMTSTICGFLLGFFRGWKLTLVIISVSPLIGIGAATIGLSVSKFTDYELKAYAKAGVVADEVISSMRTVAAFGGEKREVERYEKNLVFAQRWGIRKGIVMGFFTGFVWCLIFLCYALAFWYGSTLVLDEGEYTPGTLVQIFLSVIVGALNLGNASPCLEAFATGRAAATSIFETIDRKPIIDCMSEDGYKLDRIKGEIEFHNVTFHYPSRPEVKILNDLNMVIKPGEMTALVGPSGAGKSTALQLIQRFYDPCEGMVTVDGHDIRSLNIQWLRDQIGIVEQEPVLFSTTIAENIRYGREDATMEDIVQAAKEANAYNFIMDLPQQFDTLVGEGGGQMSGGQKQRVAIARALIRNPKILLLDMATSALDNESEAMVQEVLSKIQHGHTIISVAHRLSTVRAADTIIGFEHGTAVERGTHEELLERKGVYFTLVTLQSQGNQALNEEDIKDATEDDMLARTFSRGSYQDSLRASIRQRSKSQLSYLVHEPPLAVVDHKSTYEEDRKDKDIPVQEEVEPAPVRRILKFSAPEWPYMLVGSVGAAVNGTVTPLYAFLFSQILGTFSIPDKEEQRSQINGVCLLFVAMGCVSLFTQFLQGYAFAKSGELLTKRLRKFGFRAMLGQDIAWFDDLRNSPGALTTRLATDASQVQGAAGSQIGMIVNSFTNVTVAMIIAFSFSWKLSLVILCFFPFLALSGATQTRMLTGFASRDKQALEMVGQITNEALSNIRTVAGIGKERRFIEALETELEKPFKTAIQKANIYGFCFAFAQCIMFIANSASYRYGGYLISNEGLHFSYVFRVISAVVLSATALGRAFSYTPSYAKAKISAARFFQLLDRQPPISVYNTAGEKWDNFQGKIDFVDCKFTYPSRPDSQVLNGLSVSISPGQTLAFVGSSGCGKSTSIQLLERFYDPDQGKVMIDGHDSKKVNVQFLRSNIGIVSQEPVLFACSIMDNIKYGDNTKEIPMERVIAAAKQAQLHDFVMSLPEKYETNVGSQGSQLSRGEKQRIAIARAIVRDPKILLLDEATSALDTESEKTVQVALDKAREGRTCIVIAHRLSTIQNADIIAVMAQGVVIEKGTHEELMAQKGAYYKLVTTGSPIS
T10 sequence (P11229 whole entry): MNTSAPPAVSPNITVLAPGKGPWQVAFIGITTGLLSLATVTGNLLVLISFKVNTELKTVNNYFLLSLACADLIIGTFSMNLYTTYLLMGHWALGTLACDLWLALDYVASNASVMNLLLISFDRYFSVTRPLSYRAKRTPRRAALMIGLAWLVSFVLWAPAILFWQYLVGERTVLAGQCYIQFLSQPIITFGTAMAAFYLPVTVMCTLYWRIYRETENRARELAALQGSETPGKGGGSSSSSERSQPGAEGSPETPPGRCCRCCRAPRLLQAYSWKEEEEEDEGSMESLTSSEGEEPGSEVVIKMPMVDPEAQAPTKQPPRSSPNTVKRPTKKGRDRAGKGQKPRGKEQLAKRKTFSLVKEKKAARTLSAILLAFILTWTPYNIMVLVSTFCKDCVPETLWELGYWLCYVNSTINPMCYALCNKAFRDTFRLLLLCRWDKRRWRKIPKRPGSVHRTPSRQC
T9 sequence (P46098 24-478): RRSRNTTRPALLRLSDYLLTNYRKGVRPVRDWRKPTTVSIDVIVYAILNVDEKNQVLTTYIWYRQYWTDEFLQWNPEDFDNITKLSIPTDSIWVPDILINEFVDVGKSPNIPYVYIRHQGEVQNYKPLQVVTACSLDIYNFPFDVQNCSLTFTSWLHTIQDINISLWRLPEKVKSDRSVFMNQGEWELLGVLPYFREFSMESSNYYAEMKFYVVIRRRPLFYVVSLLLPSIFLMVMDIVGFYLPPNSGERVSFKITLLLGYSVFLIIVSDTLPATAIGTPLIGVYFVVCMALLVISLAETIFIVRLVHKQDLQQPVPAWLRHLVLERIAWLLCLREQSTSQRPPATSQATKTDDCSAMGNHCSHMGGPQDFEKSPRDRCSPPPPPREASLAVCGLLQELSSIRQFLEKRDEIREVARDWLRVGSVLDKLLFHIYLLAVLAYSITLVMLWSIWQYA
T20 sequence (P21397 whole entry): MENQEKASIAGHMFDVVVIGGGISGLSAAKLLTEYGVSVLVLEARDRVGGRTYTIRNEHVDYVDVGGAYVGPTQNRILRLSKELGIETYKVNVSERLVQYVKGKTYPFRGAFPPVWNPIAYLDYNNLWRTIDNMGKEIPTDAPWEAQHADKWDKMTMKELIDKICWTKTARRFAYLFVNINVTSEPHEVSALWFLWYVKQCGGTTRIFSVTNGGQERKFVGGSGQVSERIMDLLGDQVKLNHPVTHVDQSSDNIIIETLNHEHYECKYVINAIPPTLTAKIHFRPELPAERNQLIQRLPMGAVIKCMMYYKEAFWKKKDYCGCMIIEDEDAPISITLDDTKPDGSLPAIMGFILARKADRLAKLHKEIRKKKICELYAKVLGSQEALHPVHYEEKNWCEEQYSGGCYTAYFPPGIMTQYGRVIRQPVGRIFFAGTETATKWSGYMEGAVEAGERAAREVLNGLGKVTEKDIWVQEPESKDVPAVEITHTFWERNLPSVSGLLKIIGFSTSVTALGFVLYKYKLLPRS
T6 sequence (Q92830 728-832 limits assumed): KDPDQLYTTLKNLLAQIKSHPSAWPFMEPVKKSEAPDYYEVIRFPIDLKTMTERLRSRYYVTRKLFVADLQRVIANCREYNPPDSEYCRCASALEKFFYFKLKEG
T11 sequence (P41595 whole entry): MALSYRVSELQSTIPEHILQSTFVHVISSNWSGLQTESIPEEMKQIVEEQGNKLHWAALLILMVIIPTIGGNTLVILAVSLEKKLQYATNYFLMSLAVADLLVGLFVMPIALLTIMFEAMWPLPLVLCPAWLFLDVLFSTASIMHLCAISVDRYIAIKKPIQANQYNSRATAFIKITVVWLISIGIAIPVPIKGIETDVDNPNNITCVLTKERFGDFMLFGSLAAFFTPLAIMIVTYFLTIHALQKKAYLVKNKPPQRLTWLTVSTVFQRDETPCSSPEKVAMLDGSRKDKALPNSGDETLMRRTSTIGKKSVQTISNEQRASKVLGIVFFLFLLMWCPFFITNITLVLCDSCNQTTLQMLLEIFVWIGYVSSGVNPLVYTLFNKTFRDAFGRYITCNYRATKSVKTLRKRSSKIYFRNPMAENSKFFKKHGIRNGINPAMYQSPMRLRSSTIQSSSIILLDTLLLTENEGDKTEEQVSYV
T2 sequence (Q9H8M2 136-240 limits assumed): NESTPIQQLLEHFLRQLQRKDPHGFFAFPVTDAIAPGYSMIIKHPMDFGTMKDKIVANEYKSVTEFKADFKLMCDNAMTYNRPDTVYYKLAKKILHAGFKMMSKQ

Cc1cc(-c2nc3ccccc3n2C[C@@H]2CCCN(C(=O)C3CCN(C(C)C)CC3)C2)cn(C)c1=O [Compound 31, (S)-5-(1-((1-(1-Isopropylpiperidine-4-carbonyl)piperidin-3-yl)methyl)-1H-benzo [d]imidazole-2-yl)-1,3-dimethylpyridin-2(1H)-one]
IC50 ([1]; Homo sapiens, read-out: hWB MCP-1 IC50): 0.126 µM
IC50 ([1]; LPS-stimulated human whole blood, read-out: hWB MCP-1 pIC50 (converted)): 0.126 µM
BRD2 BD1 TR-FRET pIC50 [2]: 8.0
fold selectivity BRD2 BD1 over BD2 ([2]; TR-FRET): 400 fold
BRD3 BD2 TR-FRET pIC50 [3]: 5.1
BRDT BD2 TR-FRET pIC50 [4]: 4.5
BROMOscan pKd BRD3 BD2 [5]: 5.8
Kd [6]: 25.1 µM
Kd [7]: > 31.6 µM
Kd [8]: > 31.6 µM
Kd [9]: > 31.6 µM
Kd [10]: > 31.6 µM
Kd [11]: > 31.6 µM
pXC50 Alpha 2C Adrenoceptor agonist [12]: < 4.0
pXC50 5-HT3 Agonist [13]: < 4.3
pXC50 M1 Agonist [14]: < 4.3
pXC50 5-HT2B Agonist [15]: < 4.0
pXC50 GR Agonist [16]: < 4.0
pXC50 OPRM1 Agonist [17]: < 4.0
pXC50 Dopamine 2 (D2) Antagonist [18]: < 4.0
pXC50 Cyclooxygenase 2 (COX-2) antagonist [19]: < 4.0
pXC50 NET blocker [20]: < 4.0
pXC50 LCK inhibitor [21]: < 4.5
pXC50 PI3K-gamma inhibitor [22]: < 4.5
pXC50 PDE4B antagonist [23]: < 4.0
pXC50 Monoamine Oxidase A antagonist [24]: < 4.0
pXC50 Aurora B inhibitor [25]: < 4.5
pXC50 M2 (CHRM2) antagonist [26]: < 4.3
pXC50 D1 antagonist [27]: < 4.0
pXC50 5-HT2C antagonist [28]: < 4.0
pXC50 V1a antagonist [29]: < 4.3
pKa [30]: 9.6
pXC50 KCNQ1 blocker [31]: < 4.6
pXC50 BSEP inhibitor [32]: < 3.7
pXC50 Nav1.5 blocker [33]: < 4.3
pXC50 CYP3A4 inhibition [34]: 4.1
